From patent US12486489B2, “Culture medium for testing drug resistance of H.pylori as well as preparation method and use thereof” (priority 2022, dated 2025)

Assays:
[1] = test system: H. pylori; assay: Effects of NiCl2 on H. pylori on culture medium (50 mL Colombian culture medium with 80 mg urea and 0.4 mg phenol red); format: cell-based, Helicobacter pylori; set-up: key to bacteria growth and discoloration: +: refers to a good bacteria growth after 36 hours of culture, with a discoloration; ++: refers to a good bacteria growth after 36 hours of culture, with an obvious discoloration; settings: for bacteria growth and discoloration: 36 hours of culture
[2] = test system: H. pylori; assay: Effects of urea and phenol red on H. pylori on Columbia culture medium; format: cell-based, Helicobacter pylori; settings: for bacterial growth: 1 × 10^6 CFU/mL; for effect on the growth of H. pylori: strains G27 and 287, 72 hours

## [Cl][Ni][Cl] [NiCl2, nickel chloride]
[1]; NiCl2 100 μmol/L
  recognition of the discoloration reaction: has reached its maximum
[1]; NiCl2 1 μMol/L to 200 μMol/L, 80 mg urea, 0.4 mg phenol red, pH 7.15 to 7.35
  sensitivity and identification of the discoloration reaction: the sensitivity and identification of the discoloration reaction are further improved
[1]; strain 159, NiCl2 1 μmol/L
  bacteria growth and discoloration: +
[1]; strain 159, NiCl2 10 μmol/L
  bacteria growth and discoloration: +
[1]; strain 159, NiCl2 100 μmol/L
  bacteria growth and discoloration: ++
[1]; strain 161, NiCl2 1 μmol/L
  bacteria growth and discoloration: +
[1]; strain 161, NiCl2 10 μmol/L
  bacteria growth and discoloration: +
[1]; strain 161, NiCl2 100 μmol/L
  bacteria growth and discoloration: ++
[1]; strain 162, NiCl2 1 μmol/L
  bacteria growth and discoloration: +
[1]; strain 162, NiCl2 10 μmol/L
  bacteria growth and discoloration: +
[1]; strain 162, NiCl2 100 μmol/L
  bacteria growth and discoloration: ++
[1]; strain 163, NiCl2 1 μmol/L
  bacteria growth and discoloration: +
[1]; strain 163, NiCl2 10 μmol/L
  bacteria growth and discoloration: +
[1]; strain 163, NiCl2 100 μmol/L
  bacteria growth and discoloration: ++
[1]; strain 286, NiCl2 1 μmol/L
  bacteria growth and discoloration: +
[1]; strain 286, NiCl2 10 μmol/L
  bacteria growth and discoloration: +
[1]; strain 286, NiCl2 100 μmol/L
  bacteria growth and discoloration: ++
[1]; strain 287, NiCl2 1 μmol/L
  bacteria growth and discoloration: +
[1]; strain 287, NiCl2 10 μmol/L
  bacteria growth and discoloration: +
[1]; strain 287, NiCl2 100 μmol/L
  bacteria growth and discoloration: ++
[1]; strain 289, NiCl2 1 μmol/L
  bacteria growth and discoloration: +
[1]; strain 289, NiCl2 10 μmol/L
  bacteria growth and discoloration: +
[1]; strain 289, NiCl2 100 μmol/L
  bacteria growth and discoloration: ++
[1]; strain 290, NiCl2 1 μmol/L
  bacteria growth and discoloration: +
[1]; strain 290, NiCl2 10 μmol/L
  bacteria growth and discoloration: +
[1]; strain 290, NiCl2 100 μmol/L
  bacteria growth and discoloration: ++
[1]; strain 26695, NiCl2 1 μmol/L
  bacteria growth and discoloration: +
[1]; strain 26695, NiCl2 10 μmol/L
  bacteria growth and discoloration: +
[1]; strain 26695, NiCl2 100 μmol/L
  bacteria growth and discoloration: ++
[1]; strain G27, NiCl2 1 μmol/L
  bacteria growth and discoloration: +
[1]; strain G27, NiCl2 10 μmol/L
  bacteria growth and discoloration: +
[1]; strain G27, NiCl2 100 μmol/L
  bacteria growth and discoloration: ++

## NC(N)=O [Urea, urea]
[2]; in 50 mL Colombian culture medium
  maximum value of added urea without affecting the growth of H. pylori: 80 mg
[2]; strain 159, urea 60 mg
  bacterial growth: ++
[2]; strain 159, urea 80 mg
  bacterial growth: ++
[2]; strain 159, urea 100 mg
  bacterial growth: +
[2]; strain 159, urea 120 mg
  bacterial growth: +
[2]; strain 159, urea 240 mg
  bacterial growth: −
[2]; strain 161, urea 60 mg
  bacterial growth: ++
[2]; strain 161, urea 80 mg
  bacterial growth: ++
[2]; strain 161, urea 100 mg
  bacterial growth: +
[2]; strain 161, urea 120 mg
  bacterial growth: +
[2]; strain 161, urea 240 mg
  bacterial growth: −
[2]; strain 162, urea 60 mg
  bacterial growth: ++
[2]; strain 162, urea 80 mg
  bacterial growth: ++
[2]; strain 162, urea 100 mg
  bacterial growth: +
[2]; strain 162, urea 120 mg
  bacterial growth: +
[2]; strain 162, urea 240 mg
  bacterial growth: −
[2]; strain 163, urea 60 mg
  bacterial growth: ++
[2]; strain 163, urea 80 mg
  bacterial growth: ++
[2]; strain 163, urea 100 mg
  bacterial growth: +
[2]; strain 163, urea 120 mg
  bacterial growth: +
[2]; strain 163, urea 240 mg
  bacterial growth: −
[2]; strain 286, urea 60 mg
  bacterial growth: ++
[2]; strain 286, urea 80 mg
  bacterial growth: ++
[2]; strain 286, urea 100 mg
  bacterial growth: +
[2]; strain 286, urea 120 mg
  bacterial growth: +
[2]; strain 286, urea 240 mg
  bacterial growth: −
[2]; strain 287, urea 60 mg
  bacterial growth: ++
[2]; strain 287, urea 80 mg
  bacterial growth: ++
[2]; strain 287, urea 100 mg
  bacterial growth: +
[2]; strain 287, urea 120 mg
  bacterial growth: +
[2]; strain 287, urea 240 mg
  bacterial growth: −
[2]; strain 289, urea 60 mg
  bacterial growth: ++
[2]; strain 289, urea 80 mg
  bacterial growth: ++
[2]; strain 289, urea 100 mg
  bacterial growth: +
[2]; strain 289, urea 120 mg
  bacterial growth: +
[2]; strain 289, urea 240 mg
  bacterial growth: −
[2]; strain 290, urea 60 mg
  bacterial growth: ++
[2]; strain 290, urea 80 mg
  bacterial growth: ++
[2]; strain 290, urea 100 mg
  bacterial growth: +
[2]; strain 290, urea 120 mg
  bacterial growth: +
[2]; strain 290, urea 240 mg
  bacterial growth: −
[2]; strain 26695, urea 60 mg
  bacterial growth: ++
[2]; strain 26695, urea 80 mg
  bacterial growth: ++
[2]; strain 26695, urea 100 mg
  bacterial growth: +
[2]; strain 26695, urea 120 mg
  bacterial growth: +
[2]; strain 26695, urea 240 mg
  bacterial growth: −
[2]; strain G27, urea 60 mg
  bacterial growth: ++
[2]; strain G27, urea 80 mg
  bacterial growth: ++
[2]; strain G27, urea 100 mg
  bacterial growth: +
[2]; strain G27, urea 120 mg
  bacterial growth: +
[2]; strain G27, urea 240 mg
  bacterial growth: −
[2]; urea 60 mg in 50 mL Colombian culture medium
  effect on the growth of H. pylori: no effect on the growth of H. pylori
[2]; urea 120 mg to 240 mg in 50 mL Colombian culture medium
  effect on the growth of H. pylori: the growth is not good
